# Measurements: patent publication US6677460B1, “Aromatic carboxylic acid bicyclic sulfur compounds” (Idemitsu Kosan Company, Limited, priority 1993, dated 2004)
# Tests used:
# barnyard grass [1] = test: Submergence soil treatment test (4); type: in vivo; conditions: twenty days after treatment; note: ranges in brackets are in %
# Method: (§1) 90 Parts by weight of the above carrier and 10 parts by weight of each of Compounds obtained in the above Preparation Examples were uniformly pulverized and mixed to obtain herbicides. Further, for Herbicide Comparative Examples, comparative herbicides were prepared by uniformly pulverizing and mixing 90 parts by weight of the above carrier and 10 parts by weight of each of the following Compounds x, y, A, B and C.
# (§2) (4) Biological Test (Submergence Soil Treatment Test, Herbicide Examples 5˜9 and Comparative Examples 5˜8 and Reference Example 1 and 2)
# (§3) 1/15,500-are porcelain pots were filled with paddy field soil, and seeds of barnyard grass and umbrella plant were sown in a surface layer of the soil, and paddy rice at the 2-leaf stage was transplanted. Then, the weeds were treated by uniformly spraying a diluted solution of a predetermined amount of the herbicide prepared in the above (1) onto the water surface at the time of germination of the weeds, and then the pots were allowed to stand in a greenhouse while water was properly sprayed. […] The dosage of each herbicide is shown as an amount of the active ingredient per 10 areas. Further, air-dried weights were measured, and the herbicidal efficacy and the phytotoxicity to the paddy rice were shown as follows.
# umbrella plant = test: Submergence soil treatment test (4); type: in vivo; conditions: twenty days after treatment; note: ranges in brackets are in %
# Method: as §1, §2, §3
# paddy rice = test: Submergence soil treatment test (4), phytotoxicity; type: in vivo; conditions: twenty days after treatment
# Method: as §1, §2, §3
# barnyard grass [2] = test: Upland soil treatment test (5); type: in vivo; conditions: dosage 100 g a.i./hectare, 20th day after treatment; note: ranges in brackets are in %
# Method: as §1
# (§4) (5) Biological Test (Upland Soil Treatment Test, Herbicide Examples 10-26 and Comparative Example 9)
# (§5) Seeds of weeds such as large crabgrass, barnyard grass, green foxtail, cocklebur, velvetleaf and slender amaranth and seeds of corn, wheat and barley were sown in 1/5,000-are Wagner pots filled with upland soil, and covered with upland soil. Then, a predetermined amount of the herbicide prepared in the above (1) was suspended in water and uniformly sprayed onto the soil surface. Thereafter, the plants were grown in the greenhouse, and on 20th day after the treatment, the herbicide was evaluated for herbicidal efficacy.
# (§6) The dosage of each herbicide is indicated as an amount of the active ingredient per hectare. Further, air-dried weight were measured, and herbicidal efficacy and the pytotoxicity to corn are shown on the basis of the ratings described below.
# cocklebur = test: Upland soil treatment test (5); type: in vivo; conditions: dosage 100 g a.i./hectare, 20th day after treatment; note: ranges in brackets are in %
# Method: as §1, §4, §5, §6
# large crabgrass = test: Upland soil treatment test (5); type: in vivo; conditions: dosage 100 g a.i./hectare, 20th day after treatment; note: ranges in brackets are in %
# Method: as §1, §4, §5, §6
# velvetleaf = test: Upland soil treatment test (5); type: in vivo; conditions: dosage 100 g a.i./hectare, 20th day after treatment; note: ranges in brackets are in %
# Method: as §1, §4, §5, §6
# slender amaranth = test: Upland soil treatment test (5); type: in vivo; conditions: dosage 100 g a.i./hectare, 20th day after treatment; note: ranges in brackets are in %
# Method: as §1, §4, §5, §6
# green foxtail = test: Upland soil treatment test (5); type: in vivo; conditions: dosage 100 g a.i./hectare, 20th day after treatment; note: ranges in brackets are in %
# Method: as §1, §4, §5, §6
# corn = test: Upland soil treatment test (5), phytotoxicity; type: in vivo; conditions: dosage 100 g a.i./hectare, 20th day after treatment
# Method: as §1, §4, §5, §6
SMILES,Herbicidal Effficacy barnyard grass (barnyard grass [1]; dosage 3 g a.i./10 are),Herbicidal Effficacy barnyard grass (barnyard grass [1]; dosage 10 g a.i./10 are),Herbicidal Effficacy umbrella plant (umbrella plant; dosage 3 g a.i./10 are),Herbicidal Effficacy umbrella plant (umbrella plant; dosage 10 g a.i./10 are),Phytotoxicity to paddy rice (paddy rice; dosage 3 g a.i./10 are),Phytotoxicity to paddy rice (paddy rice; dosage 10 g a.i./10 are),melting point,Herbicidal Efficacy barnyard grass (barnyard grass [2]),Herbicidal Efficacy cocklebur (cocklebur),Herbicidal Efficacy large crabgrass (large crabgrass),Herbicidal Efficacy velvetleaf (velvetleaf),Herbicidal Efficacy slender amaranth (slender amaranth),Herbicidal Efficacy green foxtail (green foxtail),Phyto-toxicity to corn (corn),Herbicidal Effficacy barnyard grass (barnyard grass [1]; dosage 1 g a.i./10 are),Herbicidal Effficacy umbrella plant (umbrella plant; dosage 1 g a.i./10 are),Phytotoxicity to paddy rice (paddy rice; dosage 1 g a.i./10 are)
"CCn1ncc(C(=O)c2cc(C)c3c(c2C)C(=NOC)CCS3(=O)=O)c1O [Comp'd C, reference compound]",0 (81-100),4 (1-20),3 (21-40),5 (0),2 (90-94),5,,,,,,,,,,,
CCn1ncc(C(=O)c2cc(Cl)c3c(c2Cl)C(C)(C)CCS3)c1O [Compound 3],,,,,,,263.7 to 263.9 °C,,,,,,,,,,
"CCn1ncc(C(=O)c2cc(C)c3c(c2C)C(C)(C)CCS3(=O)=O)c1OS(C)(=O)=O [Compound 7, 4,4,5,8-tetramethyl-6-(1-ethyl-5-methanesulfonyloxypyrazol-4-yl)carbonylthiochroman-1,1-dioxide]",,,,,,,202.2 to 203.4 °C,5 (0),5 (0),5 (0),5 (0),5 (0),4 (1-20),0 (100),,,
CCn1ncc(C(=O)c2cc(C)c3c(c2C)C(C)(C)CCS3)c1OS(=O)(=O)CC [Compound 8],,,,,,,164.1 to 165.7 °C,4 (1-20),5 (0),5 (0),5 (0),,4 (1-20),0 (100),,,
CCCS(=O)(=O)Oc1c(C(=O)c2cc(C)c3c(c2C)C(C)(C)CCS3(=O)=O)cnn1CC [Compound 9],,,,,,,,5 (0),5 (0),5 (0),5 (0),5 (0),5 (0),0 (100),,,
CCCCS(=O)(=O)Oc1c(C(=O)c2cc(C)c3c(c2C)C(C)(C)CCS3(=O)=O)cnn1CC [Compound 10],,,,,,,,5 (0),3 (21-40),5 (0),5 (0),5 (0),2 (41-60),0 (100),5 (0),5 (0),0 (100)
CCCCCCCCS(=O)(=O)Oc1c(C(=O)c2cc(C)c3c(c2C)C(C)(C)CCS3(=O)=O)cnn1CC [Compound 11],,,,,,,,3 (21-40),3 (21-40),5 (0),5 (0),1 (61-80),2 (41-60),0 (100),5 (0),5 (0),0 (100)
CCn1ncc(C(=O)c2cc(C)c3c(c2C)C(C)(C)CCS3(=O)=O)c1OS(=O)(=O)c1ccc(C)cc1 [Compound 12],,,,,,,,5 (0),,5 (0),5 (0),5 (0),1 (61-80),0 (100),,,
CCn1ncc(C(=O)c2cc(C)c3c(c2C)C(C)(C)CCS3(=O)=O)c1OS(=O)(=O)c1ccc([N+](=O)[O-])cc1 [Compound 13],,,,,,,,3 (21-40),5 (0),5 (0),5 (0),2 (41-60),2 (41-60),0 (100),,,
CCn1ncc(C(=O)c2cc(C)c3c(c2C)C(C)(C)CCS3(=O)=O)c1OS(=O)(=O)c1ccc(OC)cc1 [Compound 14],,,,,,,,5 (0),5 (0),5 (0),5 (0),5 (0),2 (41-60),0 (100),5 (0),3 (21-40),0 (100)
CCn1ncc(C(=O)c2cc(C)c3c(c2C)C(C)(C)CCS3(=O)=O)c1OS(=O)(=O)c1ccccc1C [Compound 16],5 (0),,5 (0),,0 (100),,,5 (0),5 (0),5 (0),5 (0),5 (0),5 (0),0 (100),5 (0),2 (41-60),0 (100)
CCCCC(=O)Oc1c(C(=O)c2cc(C)c3c(c2C)C(C)(C)CCS3(=O)=O)cnn1CC [Compound 20],,,,,,,,3 (21-40),5 (0),5 (0),5 (0),,2 (41-60),0 (100),,,
CCCCCCC(=O)Oc1c(C(=O)c2cc(C)c3c(c2C)C(C)(C)CCS3(=O)=O)cnn1CC [Compound 21],,,,,,,,5 (0),5 (0),5 (0),5 (0),5 (0),4 (1-20),0 (100),,,
CCn1ncc(C(=O)c2cc(C)c3c(c2C)C(C)(C)CCS3)c1OC(=O)c1ccc(Cl)cc1Cl [Compound 23],,,,,,,165.2 to 169 °C,,,,,,,,,,
CCn1ncc(C(=O)c2cc(C)c3c(c2C)C(C)(C)CCS3)c1OCC(C)=O [Compound 24],,,,,,,,5 (0),5 (0),5 (0),5 (0),5 (0),2 (41-60),0 (100),,,
CCn1ncc(C(=O)c2cc(C)c3c(c2C)C(C)(C)CCS3(=O)=O)c1OCC(=O)c1ccccc1 [Compound 25],,,,,,,,2 (41-60),5 (0),5 (0),5 (0),5 (0),2 (41-60),0 (100),,,
